Our source for the IC50 values is US20160176867A1, “MODIFIED BET-PROTEIN-INHIBITING DIHYDROQUINOXALINONES AND DIHYDROPYRIDOPYRAZINONES” (BAYER PHARMA AKTIENGESELLSCHAFT, priority 2013, published 2016).

For orientation: pIC50 means the IC50 on a negative log10 scale, so that one unit is a factor of ten. Low readings indicate a high IC50, high ones a low IC50.

pIC50: −log10 of the molar value.

One assay has as its system MOLP-8 cells. Briefly: Cell proliferation assay (alamarBlue), MOLP-8. The assay is classed as cell-based. Conditions: Homo sapiens; MOLP-8 (multiple myeloma), 120 hours. As for the experimental part: (§1) In accordance with the invention, the ability of the substances to inhibit cell proliferation was determined. Cell viability was determined by means of the alamarBlue® reagent (Invitrogen) in a Victor X3 Multilabel Reader (Perkin Elmer). The excitation wavelength was 530 nm and the emission wavelength […].
The MOLP-8 cells (DSMZ, ACC 569) were sown at a concentration of 4000 cells/well in 100 μl of growth medium (RPMI1640, 20% FCS) on 96-well microtitre plates.
(§2) After overnight incubation at 37° C., the fluorescence values were determined (CI values). Then the plates were treated with various substance dilutions (1E-5 M, 3E-6 M, 1E-6 M, 3E-7 M, 1E-7 M, 3E-8 M, 1E-8 M) and incubated at 37° C. over 96 hours (MOLM-13, B16F10, CHL-1 cells) or 120 hours (MOLP-8 cells). Subsequently, the fluorescence values were determined (CO values). For the data analysis, the CI values were subtracted from the CO values and the results were compared between cells which had been treated with various dilutions of the substance or only with buffer solution. The IC50 values (substance concentration needed for 50% inhibition of cell proliferation) were calculated therefrom.
For orientation: The colour change of resazurin is a common sign of viable cells or microbes.

In a further assay the test system is B16F10 cells. Briefly: Cell proliferation assay (alamarBlue), B16F10. The assay is classed as cell-based. The conditions noted are these: Mus musculus, B16-F10; B16F10 (melanoma, BRAF wild-type), 96 hours. On the procedure: as §1
The B16F10 cells (ATCC, CRL-6475) were sown at a concentration of 300-500 cells/well in 100 μl of growth medium (DMEM with phenol red, 10% FCS) on 96-well microtitre plates.
as §2

A further assay concerns MOLM-13 cells. Briefly: Cell proliferation assay (alamarBlue), MOLM-13. The assay is classed as cell-based. Conditions: Homo sapiens; MOLM-13 (acute myeloid leukaemia), 96 hours. On the procedure:
as §1
The MOLM-13 cells (DSMZ, ACC 554) were sown at a concentration of 4000 cells/well in 100 μl of growth medium (RPMI1640, 10% FCS) on 96-well microtitre plates.
as §2

Assay [1] has as its target T1, BRD4 bromo domain 2 [BRD4(2)] (Homo sapiens, UniProt O60885).
T1 construct: N-terminally His6-tagged BRD4(2) (amino acids 357-445); made in house; host or cells: E. coli
In words: BRD4/acetylated peptide H4 binding assay (TR-FRET), BRD4 bromo domain 2. The conditions noted are these: inhibition of BRD4(2)/Ac-H4 peptide interaction. The essentials:
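Binding of His6-BRD4(2) (aa 357-445, 100 nM final) to biotinylated tetra-acetylated H4 peptide read by TR-FRET (665/620 nm). Compound preincubated 10 min at 22 °C, then 1 h at 22 °C plus ≥3 h at 4 °C. Eleven concentrations (0.1 nM–20 μM) in duplicate; IC50 by 4-parameter fit.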
On the technique in general: TR-FRET usually uses a lanthanide donor and a delayed reading to cut background.

Turning to `COCCN1c2nc(Nc3cccc(S(=O)(=O)N4CCOCC4)c3)ccc2N(C)C(=O)C1C` (racemic) [Example 49, 4-(2-methoxyethyl)-1,3-dimethyl-6-{[3-(morpholin-4-ylsulphonyl)phenyl]amino}-3,4-dihydropyrido[2,3-b]pyrazin-2(1H)-one], the negative logarithm of the IC50 (pIC50) in the assay on MOLP-8 cells is 6.79; with B16F10 cells, 6.40; with MOLM-13 cells, 6.57; in assay [1] it was 6.80.
On the same counts, the results for `COCCN1c2nc(Nc3cccc(S(=O)(=O)N4CCN(C)CC4)c3)ccc2N(C)C(=O)C1C` (racemic) [Example 53, 4-(2-methoxyethyl)-1,3-dimethyl-6-({3-[(4-methylpiperazin-1-yl)sulphonyl]phenyl}-amino)-3,4-dihydropyrido-[2,3-b]pyrazin-2(1H)-one] are 6.44, 5.89, 6.25 and 6.73.
For the compound `CC1C(=O)N(C)c2ccc(Nc3cccc(C(=O)NC4CCN(C)CC4)c3)nc2N1c1ccccc1` (racemic) [Example 104, 3-[(1,3-dimethyl-2-oxo-4-phenyl-1,2,3.4-tetrahydropyrido[2,3-b]pyrazin-6-yl)amino]-A-(1-methylpiperidin-4-yl)benzamide], the pIC50 with MOLP-8 cells was 6.08; in the assay on B16F10 cells, 5.61; in the assay on MOLM-13 cells, 5.84; in assay [1] it was 6.33.
On the same counts, the results for `COCCN1c2nc(Nc3cccc(S(=O)(=O)N4CCOCC4)c3)ccc2N(C)C(=O)[C@H]1C` (stereo in doubt) [Example 111, (3R)-4-(2-methoxyethyl)-1,3-dimethyl-6-{[3-(morpholin-4-ylsulphonyl)phenyl]amino}-3,4-dihydropyrido[2,3-b]pyrazin-2(1H)-one] are 6.97, 6.50, 6.65 and 6.94.
As to `C[C@@H]1C(=O)N(C)c2ccc(Nc3cccc(C(=O)N4CCN(C)CC4)c3)nc2N1C1CCCC1` [Example 1, (3R)-4-Cyclopentyl-1,3-dimethyl-6-({3-[(4-methylpiperazin-1-yl)carbonyl]phenyl}amino)-3,4-dihydropyrido[2,3-b]pyrazin-2(1H)-one], the pIC50 with MOLP-8 cells was 6.47; with B16F10 cells it was 6.18; in the assay on MOLM-13 cells, 6.21; in assay [1], 7.26.
`C[C@@H]1C(=O)N(C)c2ccc(Nc3cccc(C(=O)NC4CCN(C)CC4)c3)nc2N1C1CCCC1` [Example 2, 3-{[(3R)-4-Cyclopentyl-1,3-dimethyl-2-oxo-1,2,3,4-tetrahydropyrido[2,3-b]pyrazin-6-yl]amino}-N-(1-methylpiperidin-4-yl)benzamide]: the pIC50 in the assay on MOLP-8 cells was 6.94; in the assay on B16F10 cells, 6.35; with MOLM-13 cells, 6.45; in assay [1], 7.05.
On the same counts, the results for `C[C@@H]1C(=O)N(C)c2ccc(Nc3cccc(C(=O)NC4CN(C)C4)c3)nc2N1C1CCCC1` [Example 3, 3-{[(3R)-4-Cyclopentyl-1,3-dimethyl-2-oxo-1,2,3,4-tetrahydropyrido[2,3-b]pyrazin-6-yl]amino}-N-(1-methylazetidin-3-yl)benzamide] are 6.73, 6.16, 6.53 and 7.04.
As for `C[C@@H]1C(=O)N(C)c2ccc(Nc3cccc(C(=O)NCCN(C)C)c3)nc2N1C1CCCC1` [Example 4, 3-{[(3R)-4-Cyclopentyl-1,3-dimethyl-2-oxo-1,2,3,4-tetrahydropyrido[2,3-b]pyrazin-6-yl]amino}-N-[2-(dimethylamino)ethyl]benzamide], the pIC50 is 6.60 in the assay on MOLP-8 cells, 6.11 in the assay with B16F10 cells, 6.27 in the assay on MOLM-13 cells and 7.00 in assay [1].
For the compound `C[C@@H]1C(=O)N(C)c2ccc(Nc3cccc(C(=O)N[C@H]4CC[C@H](N5CCN(CC6CC6)CC5)CC4)c3)nc2N1C1CCCC1` [Example 5, 3-{[(3R)-4-Cyclopentyl-1,3-dimethyl-2-oxo-1,2,3,4-tetrahydropyrido[2,3-b]pyrazin-6-yl]amino}-N-{trans-4-[4-(cyclopropylmethyl)piperazin-1-yl]cyclohexyl}benzamide], the pIC50 in the assay on MOLP-8 cells was 6.87; with B16F10 cells, 6.30; in the assay on MOLM-13 cells, 6.49; in assay [1] it was 7.23.
On the same counts, the results for `C[C@@H]1C(=O)N(C)c2ccc(Nc3cccc(S(=O)(=O)N(C)C)c3)nc2N1C1CCOCC1` [Example 6, 3-{[(3R)-1,3-Dimethyl-2-oxo-4-(tetrahydro-2H-pyran-4-yl)-1,2,3,4-tetrahydropyrido[2,3-b]pyrazin-6-yl]amino}-N,N-dimethylbenzenesulphonamide] are 7.43, 7.15, 7.28 and 7.49.
On to `C[C@@H]1C(=O)N(C)c2ccc(Nc3cccc(S(=O)(=O)N(C)C)c3)cc2N1C1CCOCC1` [Example 7, 3-{[(3R)-1,3-Dimethyl-2-oxo-4-(tetrahydro-2H-pyran-4-yl)-1,2,3,4-tetrahydroguinoxalin-6-yl]amino}-N,N-dimethylbenzenesulphonamide], for which the negative-log IC50 (pIC50) with B16F10 cells is 6.75; with MOLM-13 cells, 6.83; in assay [1], 7.15.
As for `C[C@@H]1C(=O)N(C)c2ccc(Nc3cccc(S(=O)(=O)N4CCOCC4)c3)cc2N1C1CCOCC1` [Example 8, (3R)-1,3-Dimethyl-6-{[3-(morpholin-4-ylsulphonyl)phenyl]amino}-4-(tetrahydro-2H-pyran-4-yl)-3,4-dihydroquinoxalin-2(1H)-one], the pIC50 in the assay on B16F10 cells is 6.59; in the assay on MOLM-13 cells, 6.57; in assay [1], 7.05.
As for `C[C@@H]1C(=O)N(C)c2ccc(Nc3cccc(S(=O)(=O)N4CCOCC4)c3)nc2N1C1CCOCC1` [Example 9, (3R)-1,3-Dimethyl-6-{[3-(morpholin-4-ylsulphonyl)phenyl]amino}-4-(tetrahydro-2H-pyran-4-yl)-3,4-dihydropyrido[2,3-b]pyrazin-2(1H)-one], the negative-log IC50 (pIC50) in the assay with MOLP-8 cells is 7.40; in the assay with B16F10 cells it was 7.11; with MOLM-13 cells, 7.18; in assay [1], 7.27.
For `COc1ccc(CN2c3cc(Nc4cccc(S(=O)(=O)N(C)C)c4)ccc3N(C)C(=O)[C@H]2C)cc1` [Example 10, 3-{[(3R)-4-(4-Methoxybenzyl)-1,3-dimethyl-2-oxo-1,2,3,4-tetrahydroquinoxalin-6-yl]amino}-N,N-dimethylbenzenesulphonamide], the pIC50 with MOLP-8 cells is 7.09; in the assay on B16F10 cells it was 6.91; in the assay on MOLM-13 cells, 6.63; in assay [1], 7.21.
Turning to `C[C@@H]1C(=O)N(C)c2ccc(Nc3cccc(S(=O)(=O)N4CCN(C)CC4)c3)nc2N1C1CCOCC1` [Example 12, (3R)-1,3-Dimethyl-6-({3-[(4-methylpiperazin-1-yl)sulphonyl]phenyl}amino)-4-(tetrahydro-2H-pyran-4-yl)-3,4-dihydropyrido[2,3-b]pyrazin-2(1H)-one], the negative-log IC50 (pIC50) in the assay on MOLP-8 cells is 6.90; in the assay on B16F10 cells, 6.26; in the assay on MOLM-13 cells, 6.71; in assay [1], 7.17.
